The source of these data is PubChem BioAssay (NCI).

Test systems include HS 578T breast; MDA-MB-435; T-47D breast; MDA-N; BT-549 breast; DLD-1 colon; HOP-18 NSCLC; DMS 273 small cell lung; M19-MEL melanoma; SNB-78 CNS; LXFL 529 NSCLC; KM20L2 colon; P388/ADR leukemia; P388 leukemia; SN12K1 renal; RXF-631 renal.
Holding throughout (assay): NCI tumour cell line growth inhibition, 48 h

Structures are written as SMILES.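 Dose response: 5 concentrations. Exposure: 48 h. Format: 96-well plates. Endpoint: linear interpolation; highest concentration if not reached. TGI: concentration producing complete growth inhibition.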 A value given as a limit tells only on which side of the number the result lay.

Take `CN(C)CCCN1c2ccccc2Sc2ccc3ccccc3c21`: the TGI in the assay on HS 578T breast was found to be 25.6 µM; in the assay on MDA-MB-435, 10.4 µM; in the assay with T-47D breast it was 5.65 µM; in the assay on MDA-N it was 15.1 µM; with BT-549 breast, 26.3 µM.
For the compound `O=C1C(Cl)=C(Nc2ccc(S(=O)(=O)O)cc2)C(=O)c2ccccc21`, the figures for the TGI in the assay with HS 578T breast, with MDA-MB-435 and with BT-549 breast were 52.8 µM, 39.6 µM and more than 100 µM, respectively.
Regarding `CCCc1c(-c2ccccc2)[nH]c2ccccc2c1=O`, the TGI in the assay on HS 578T breast was more than 100 µM; with MDA-MB-435 it was more than 100 µM; with T-47D breast, 99.8 µM; in the assay with MDA-N, more than 100 µM; in the assay with BT-549 breast, more than 100 µM.
`O=C1OC2(CC1C1(O)C3CC4CC(C3)CC1C4)C1CC3CC(C1)CC2C3` (stereo unspecified): the TGI was more than 100 µM in the assay with DLD-1 colon; 35.8 µM in the assay on HOP-18 NSCLC; more than 100 µM with DMS 273 small cell lung; more than 100 µM with M19-MEL melanoma; more than 100 µM in the assay with SNB-78 CNS; more than 100 µM in the assay with LXFL 529 NSCLC.
With `Cn1c(=O)c2[nH]c(CCNC(=O)c3ccccc3)nc2n(C)c1=O`, the TGI with HS 578T breast, with MDA-MB-435, with T-47D breast, with MDA-N and in the assay on BT-549 breast was more than 100 µM each time.
For `N#C[C@H](OC1OC(COC2OC(CO)C(O)C(O)C2O)C(O)C(O)C1O)c1ccccc1` (stereo partly specified), the TGI is more than 250 µM with DLD-1 colon; more than 250 µM with KM20L2 colon; more than 250 µM in the assay on HOP-18 NSCLC; more than 158 µM in the assay on P388/ADR leukemia; more than 250 µM in the assay on P388 leukemia; more than 250 µM in the assay on DMS 273 small cell lung. Further, the TGI with M19-MEL melanoma, in the assay with SN12K1 renal and with SNB-78 CNS was more than 250 µM throughout.
With `O=C(Nc1nc2ccc([N+](=O)[O-])cc2s1)C(=O)C(C(=O)c1ccccc1F)C1OC(=O)c2ccccc21` (stereo unspecified), the TGI with DLD-1 colon, in the assay with KM20L2 colon, in the assay with DMS 273 small cell lung, in the assay with M19-MEL melanoma, in the assay on SNB-78 CNS and in the assay with LXFL 529 NSCLC was more than 100 µM throughout.
As to `O=c1ssc(=Nc2ccccc2)n1-c1ccccc1`, the TGI was 98.7 µM with HS 578T breast, more than 100 µM in the assay with MDA-MB-435, 39.1 µM in the assay with T-47D breast and more than 100 µM with MDA-N.
For the compound `CCOC(=O)c1c(C)nc2c1c(CN(C)C)c(O)c1[nH]c(C)c(C)nc12`, the TGI in the assay with HS 578T breast came to 70.8 µM; with MDA-MB-435, 99.7 µM; with T-47D breast, 74.1 µM; with MDA-N, 54.7 µM; with BT-549 breast it was 76 µM.
As for `C[N+](C)(C)CCc1ccccc1`, the TGI in the assay with DLD-1 colon, in the assay on KM20L2 colon, with DMS 273 small cell lung, in the assay on RXF-631 renal, in the assay with M19-MEL melanoma and with SNB-78 CNS was more than 100 µM in each case. This compound also returned a TGI in the assay with LXFL 529 NSCLC of more than 100 µM.
`CC(=O)Oc1cc2c(cc1OC(C)=O)OCC(c1ccccc1)C2` (stereo unspecified): the TGI in the assay with DLD-1 colon was 27.4 µM; in the assay on KM20L2 colon, 61.1 µM; with HOP-18 NSCLC, 63.2 µM; with P388/ADR leukemia, 11.7 µM; with P388 leukemia, 9.97 µM; in the assay on DMS 273 small cell lung, 102 µM. The figures for the TGI with M19-MEL melanoma, in the assay on SN12K1 renal and in the assay on SNB-78 CNS were 45.7 µM, 38.6 µM and 111 µM, respectively.
In the case of `Nc1ccn(C2C=C(CO)C(O)C2O)c(=O)c1` (stereo unspecified), the TGI in the assay with DLD-1 colon is more than 62.5 µM; in the assay with KM20L2 colon it was more than 625 µM; in the assay on HOP-18 NSCLC it was more than 625 µM; with DMS 273 small cell lung it was more than 625 µM; in the assay with M19-MEL melanoma, more than 625 µM; in the assay with SN12K1 renal, more than 625 µM. In the assay on SNB-78 CNS, this compound had a TGI of more than 625 µM.
For the compound `CCCNC(=O)C(C)C1CCC2(C)C=CC(=O)C(C)=C2C1O` (stereo unspecified), the TGI in the assay with DLD-1 colon, with KM20L2 colon, with HOP-18 NSCLC, with P388/ADR leukemia, in the assay on P388 leukemia and with DMS 273 small cell lung was more than 100 µM throughout. For the same compound, the TGI with M19-MEL melanoma and in the assay on SN12K1 renal was more than 100 µM each time.
Regarding `O=C(O)c1cc2c(ncc3c(=O)n(-c4ccccc4)[nH]c32)s1`, the TGI in the assay with DLD-1 colon, with KM20L2 colon, with HOP-18 NSCLC, with DMS 273 small cell lung, in the assay on M19-MEL melanoma and in the assay on LXFL 529 NSCLC was more than 100 µM each time.
Regarding `COc1c(Br)cc2c(c1OC)C(Br)CCC(Br)(Br)C2=O` (stereo unspecified), the TGI in the assay on HS 578T breast is more than 71.7 µM; in the assay with MDA-MB-435, 3.62 µM; in the assay with T-47D breast, 4.84 µM; with MDA-N, 0.684 µM; with BT-549 breast it was 1.37 µM.
Taken in the same sequence, the figures for `OCCNCCN1CCN(CCCN2c3ccccc3Sc3ccc(C(F)(F)F)cc32)CC1` were 70.1 µM, 33.7 µM, 50.4 µM, 33.7 µM and more than 100 µM.
Regarding `O=C(CCl)NNC1=Nc2ccc(Cl)cc2SC1`, the TGI in the assay on DLD-1 colon came to 3.6 µM; in the assay with KM20L2 colon, 9.18 µM; with HOP-18 NSCLC, 3.36 µM; with P388/ADR leukemia, 3.52 µM; in the assay with P388 leukemia, 1.07 µM; in the assay on DMS 273 small cell lung, 8.29 µM. Further, the values for the TGI in the assay with M19-MEL melanoma, in the assay with SN12K1 renal and with SNB-78 CNS were 5.46 µM, 7.94 µM and 4.51 µM, respectively.
`Cc1ccc(C2OC(COCc3ccc(Cl)cc3)C(OCc3ccc(Cl)cc3)C2O)cc1` (stereo unspecified): the TGI was 34.1 µM in the assay with DLD-1 colon; 56.1 µM in the assay with KM20L2 colon; more than 100 µM in the assay with HOP-18 NSCLC; 18.9 µM in the assay with DMS 273 small cell lung; 38.1 µM with M19-MEL melanoma; 29.6 µM in the assay with SNB-78 CNS. Moreover, the TGI in the assay on LXFL 529 NSCLC was determined as 58.5 µM.
On to `NCCSS(=O)(=O)CCN`, for which the TGI with HS 578T breast, in the assay with MDA-MB-435, with T-47D breast, in the assay with MDA-N and in the assay with BT-549 breast was more than 100 µM each time.
